Test [1] has as its system HUH7 (human hepatoma cell line). Briefly: Cell death detection, trypan blue exclusion assay, HUH7, in combination with AZD-6244. The format is cell-based. Particulars: HUH7, 6-day treatment; for Cell Death (%) in combination with AZD-6244: compound 0.5 μM. On the procedure: (§1) Biological Test 2. Cell Death Detection Using Trypan Blue Exclusion Assay.
(§2) After drug treatment, cells were harvested by trypsinization with trypsin/EDTA for 10 min at 37° C. As some apoptotic cells detached from the culture substratum into the medium, these cells were also collected by centrifugation of the medium at 1,200 rpm for 5 min. The pooled cell pellets were resuspended and mixed with trypan blue dye. After Trypan blue stain was done, cells were counted by using a light microscope and a hemocytometer. Blue dye-incorporating cells were scored as being dead. Five hundred cells from randomly chosen fields were counted, and the number of dead cells was counted and expressed as a percentage of the total number of cells counted as shown in Tables 2 to 8 below.

Test [2] addresses BRAF (Homo sapiens, UniProt P15056). Briefly: In vitro kinase assay (Invitrogen SelectScreen Profiling Service), BRAF. Format: biochemical. On the procedure:
(§3) Biological Test 1. In Vitro Kinase Assay for BRAF, FLT3 and KDR(VEGFR2) The inhibitory activities of the compounds of the invention were measured by Invitrogen's SelectScreen® Profiling Service.

For test [3], the target named is T1, FLT3 (Homo sapiens, UniProt P36888).
T1 sequence (P36888 27-993): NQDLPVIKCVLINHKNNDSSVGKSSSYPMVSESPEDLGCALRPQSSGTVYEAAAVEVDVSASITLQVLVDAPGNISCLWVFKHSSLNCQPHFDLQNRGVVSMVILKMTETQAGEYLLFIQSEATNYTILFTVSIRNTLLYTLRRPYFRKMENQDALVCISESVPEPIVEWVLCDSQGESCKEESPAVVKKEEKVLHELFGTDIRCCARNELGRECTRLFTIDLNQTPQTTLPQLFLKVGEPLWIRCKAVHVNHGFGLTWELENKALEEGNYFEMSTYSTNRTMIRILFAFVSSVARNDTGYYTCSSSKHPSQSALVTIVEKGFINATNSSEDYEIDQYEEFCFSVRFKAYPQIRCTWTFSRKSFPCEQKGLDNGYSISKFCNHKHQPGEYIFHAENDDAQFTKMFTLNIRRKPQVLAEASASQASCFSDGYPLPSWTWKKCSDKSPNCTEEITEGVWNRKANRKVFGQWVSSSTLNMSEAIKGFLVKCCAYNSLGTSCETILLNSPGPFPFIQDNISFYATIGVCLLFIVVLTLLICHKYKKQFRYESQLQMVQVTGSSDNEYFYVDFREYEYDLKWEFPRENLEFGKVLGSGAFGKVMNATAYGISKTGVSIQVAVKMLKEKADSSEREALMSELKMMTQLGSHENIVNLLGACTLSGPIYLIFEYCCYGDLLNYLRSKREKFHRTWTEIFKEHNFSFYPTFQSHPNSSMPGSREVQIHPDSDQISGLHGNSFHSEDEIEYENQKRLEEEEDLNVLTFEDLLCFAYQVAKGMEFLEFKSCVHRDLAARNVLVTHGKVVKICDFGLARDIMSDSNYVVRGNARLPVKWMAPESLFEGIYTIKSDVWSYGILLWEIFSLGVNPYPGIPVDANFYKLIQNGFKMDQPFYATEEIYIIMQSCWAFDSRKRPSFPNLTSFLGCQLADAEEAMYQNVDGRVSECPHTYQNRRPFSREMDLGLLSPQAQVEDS
Briefly: In vitro kinase assay (Invitrogen SelectScreen Profiling Service), FLT3. The format is biochemical. As to conditions: FLT3, 0.1 μM. On the procedure: as §3

For test [4], the target named is KDR(VEGFR2) (Homo sapiens, UniProt P35968). Briefly: In vitro kinase assay (Invitrogen SelectScreen Profiling Service), KDR. Format: biochemical. On the procedure: as §3
Test [5] has as its system Hep3B (human hepatoma cell line). Briefly: Cell death detection, trypan blue exclusion assay, Hep3B. Format: cell-based. As to conditions: 5-day treatment. On the procedure:
as §1, §2

In test [6] the test system is HepG2 (human Hepatocellular carcinoma cell line). Briefly: Cell death detection, trypan blue exclusion assay, HepG2. Format: cell-based. As to conditions: HepG2, 5-day treatment. On the procedure:
as §1, §2

For test [7], the system named is HT29 (human colon adenocarcinoma cell line). Briefly: Cell death detection, trypan blue exclusion assay, HT29. The format is cell-based. Particulars: HT29, 5-day treatment. The method, then:
as §1, §2

The subject of test [8] is HUH7 (human hepatoma cell line). Briefly: Cell death detection, trypan blue exclusion assay, HUH7. The format is cell-based. Particulars: Huh-7, 168 h, HUH7, 7-day treatment, read-out: Cell Death (%) at Tested Concentration. On the procedure:
as §1, §2

In test [9] the test system is LNCaP (human prostate adenocarcinoma cell line). Briefly: Cell death detection, trypan blue exclusion assay, LNCaP. The format is cell-based. As to conditions: read-out: Cell Death (%) at Tested Concentration. On the procedure: as §1, §2

SMILES strings stand for the structures. Where two headings read alike, the source gives them in different places.

Chain of KDR(VEGFR2) (P35968 20-1356): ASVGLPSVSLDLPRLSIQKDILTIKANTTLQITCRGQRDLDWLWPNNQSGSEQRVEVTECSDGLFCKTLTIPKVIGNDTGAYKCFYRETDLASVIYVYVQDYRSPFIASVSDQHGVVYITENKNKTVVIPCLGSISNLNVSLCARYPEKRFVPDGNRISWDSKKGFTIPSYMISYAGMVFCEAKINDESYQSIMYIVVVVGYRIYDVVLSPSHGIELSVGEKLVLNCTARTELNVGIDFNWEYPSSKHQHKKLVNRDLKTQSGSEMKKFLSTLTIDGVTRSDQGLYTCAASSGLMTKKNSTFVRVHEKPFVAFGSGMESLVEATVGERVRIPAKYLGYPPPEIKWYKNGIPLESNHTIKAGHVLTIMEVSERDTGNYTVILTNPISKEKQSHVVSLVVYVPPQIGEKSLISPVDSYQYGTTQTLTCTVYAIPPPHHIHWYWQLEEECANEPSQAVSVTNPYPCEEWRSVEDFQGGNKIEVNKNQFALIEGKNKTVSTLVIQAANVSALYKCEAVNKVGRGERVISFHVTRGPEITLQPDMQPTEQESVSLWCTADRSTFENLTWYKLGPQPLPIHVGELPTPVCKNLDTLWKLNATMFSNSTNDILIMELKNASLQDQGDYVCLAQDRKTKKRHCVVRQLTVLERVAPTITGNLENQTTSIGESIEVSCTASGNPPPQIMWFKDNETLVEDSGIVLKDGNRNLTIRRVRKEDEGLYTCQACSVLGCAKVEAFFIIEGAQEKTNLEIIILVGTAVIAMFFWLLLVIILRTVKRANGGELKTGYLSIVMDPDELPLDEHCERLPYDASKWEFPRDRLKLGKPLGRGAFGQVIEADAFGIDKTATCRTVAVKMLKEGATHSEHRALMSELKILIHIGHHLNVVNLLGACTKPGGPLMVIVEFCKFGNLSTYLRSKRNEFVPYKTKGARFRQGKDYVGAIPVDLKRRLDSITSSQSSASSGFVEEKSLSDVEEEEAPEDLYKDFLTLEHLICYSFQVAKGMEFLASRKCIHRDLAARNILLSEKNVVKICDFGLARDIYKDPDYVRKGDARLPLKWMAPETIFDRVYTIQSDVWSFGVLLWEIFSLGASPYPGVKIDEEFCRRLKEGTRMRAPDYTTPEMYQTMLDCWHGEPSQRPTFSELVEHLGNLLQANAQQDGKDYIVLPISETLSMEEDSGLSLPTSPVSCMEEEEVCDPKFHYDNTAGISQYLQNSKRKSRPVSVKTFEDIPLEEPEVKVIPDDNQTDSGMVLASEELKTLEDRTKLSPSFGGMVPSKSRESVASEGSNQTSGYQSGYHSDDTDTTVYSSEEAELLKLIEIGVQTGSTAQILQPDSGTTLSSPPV
Chain of BRAF (P15056 whole entry): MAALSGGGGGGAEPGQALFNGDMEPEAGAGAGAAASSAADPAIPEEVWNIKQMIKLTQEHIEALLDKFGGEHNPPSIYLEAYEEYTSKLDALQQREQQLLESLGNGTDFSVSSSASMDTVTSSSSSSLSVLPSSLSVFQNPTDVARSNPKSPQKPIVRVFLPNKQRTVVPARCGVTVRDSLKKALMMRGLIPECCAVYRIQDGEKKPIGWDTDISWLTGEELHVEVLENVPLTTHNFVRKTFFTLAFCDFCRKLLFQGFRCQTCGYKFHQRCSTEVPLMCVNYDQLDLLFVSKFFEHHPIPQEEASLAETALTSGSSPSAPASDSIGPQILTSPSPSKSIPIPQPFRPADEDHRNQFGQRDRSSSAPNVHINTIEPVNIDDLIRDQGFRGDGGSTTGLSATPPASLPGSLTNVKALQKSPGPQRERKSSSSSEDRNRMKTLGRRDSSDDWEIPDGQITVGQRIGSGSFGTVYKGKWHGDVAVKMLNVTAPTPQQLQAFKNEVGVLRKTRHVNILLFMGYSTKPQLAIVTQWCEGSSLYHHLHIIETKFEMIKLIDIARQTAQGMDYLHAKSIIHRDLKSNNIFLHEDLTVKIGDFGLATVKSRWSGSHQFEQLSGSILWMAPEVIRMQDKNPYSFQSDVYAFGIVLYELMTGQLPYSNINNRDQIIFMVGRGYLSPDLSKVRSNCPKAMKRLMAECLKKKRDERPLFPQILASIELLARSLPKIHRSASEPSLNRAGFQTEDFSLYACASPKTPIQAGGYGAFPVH

Regarding `Cn1cnc2c(F)c(Nc3ccc(Br)cc3Cl)c(C(=O)NOCCO)cc21` [AZD-6244, reference compound], in [1] (AZD-6244 0.5 μM, no other compound (0)), the “Cell Death (%), AZD-6244 alone” value turned out to be 2.3%.

Take `CNC(=O)c1cc(Oc2ccc(NC(=O)Nc3cccc(S(F)(F)(F)(F)F)c3)cc2)ccn1` [Example 1, N-methyl-4-[4-({[3-(pentafluoro-λ^6-sulfanyl)phenyl]carbamoyl}amino)phenoxy]pyridine-2-carboxamide]: the inhibition (in general, the share of the control response that was lost under treatment) at 0.1 µM in [2] worked out at 18%; in test [3] it was 85%; in test [4], 79%. The “Cell Death (%) at Tested Concentration” value is listed as 3.8% in test [5] (0.25 uM); 22.3% in test [5] (3.0 uM); 92.7% in test [5] (5.0 uM); 2.6% in [6] (0.25 uM); 32.4% in [6] (3.0 uM); 84.5% in test [6] (5.0 uM). Besides, the “Cell Death (%) at Tested Concentration” value in test [7] (2.5 uM) was 12.4%; in test [7] (5.0 uM), 14.5%; in test [7] (10 uM), 68.7%. Moreover, the cytotoxicity at 1 µM in test [8] amounted to 2%; in test [9] (72 h, 3-day treatment), 1.6%; in test [9] (168 h, 7-day treatment), 1.6%. The cytotoxicity at 2.5 µM in [8] was determined as 5.1%; in test [9] (72 h, 3-day treatment) it was 1.5%; in test [9] (168 h, 7-day treatment), 2.8%. Besides, the cytotoxicity at 5 µM in test [8] stood at 18.3%; in test [9] (72 h, 3-day treatment) it was 1.3%; in test [9] (168 h, 7-day treatment), 2.8%. For the same compound, the cytotoxicity at 7.5 µM in test [8] amounted to 52.7%; in test [9] (72 h, 3-day treatment) it was 7.3%; in [9] (168 h, 7-day treatment), 99%. Further, the cytotoxicity at 10 µM turned out to be 72.3% in [8]; 62.5% in test [9] (72 h, 3-day treatment); 99% in test [9] (168 h, 7-day treatment). The “Cell Death (%) in combination with AZD-6244” value (“Cell Death (%) in combination” below) in [1] (AZD-6244 0 μM) was determined as 2.3%; in [1] (AZD-6244 0.5 μM), 99%.

Turning to `CNC(=O)c1cc(Oc2ccc(NC(=O)Nc3cccc(S(F)(F)(F)(F)F)c3)c(F)c2)ccn1` [Example 2, 4-[3-fluoro-4-({[3-(pentafluoro-λ^6-sulfanyl)phenyl]carbamoyl}amino)phenoxy]-N-methylpyridine-2-carboxamide], the inhibition at 0.1 µM in test [2] worked out at 14%; in [3], 71%; in [4] it was 76%. Besides, the “Cell Death (%) at Tested Concentration” value in [5] (0.25 uM) was found to be 4.1%; in test [5] (3.0 uM), 92.7%; in test [5] (5.0 uM) it was 98.5%; in test [6] (0.25 uM), 2.2%; in test [6] (3.0 uM), 94.7%; in test [6] (5.0 uM), 99%. In addition, the “Cell Death (%) at Tested Concentration” value in test [7] (2.5 uM) turned out to be 12.3%; in [7] (5.0 uM), 14.7%; in test [7] (10 uM), 24.8%. For the same compound, the cytotoxicity at 1 µM stood at 2.4% in test [8]; 1.7% in test [9] (72 h, 3-day treatment); 1.5% in test [9] (168 h, 7-day treatment). Further, the cytotoxicity at 2.5 µM in [8] came out at 7.3%; in test [9] (72 h, 3-day treatment), 1.8%; in [9] (168 h, 7-day treatment), 2.7%. Also, the cytotoxicity at 5 µM in [8] stood at 42.6%; in [9] (72 h, 3-day treatment) it was 1.6%; in [9] (168 h, 7-day treatment) it was 2.5%. Further, the cytotoxicity at 7.5 µM came out at 72.6% in test [8]; 4.2% in [9] (72 h, 3-day treatment); 17.3% in [9] (168 h, 7-day treatment). Further, the cytotoxicity at 10 µM came out at 75.2% in test [8]; 83.7% in [9] (72 h, 3-day treatment); 99% in test [9] (168 h, 7-day treatment). Further, the “Cell Death (%) in combination” value is 3.6% in [1] (AZD-6244 0 μM) and 99% in test [1] (AZD-6244 0.5 μM).

On to `CNC(=O)c1cc(Oc2ccc(NC(=O)Nc3cc(S(F)(F)(F)(F)F)ccc3Cl)cc2)ccn1` [Example 5, 4-[4-({[2-chloro-5-(pentafluoro-λ^6-sulfanyl)phenyl]carbamoyl}amino)phenoxy]-N-methylpyridine-2-carboxamide], for which, in test [8], the cytotoxicity at 1 µM was 1.7%, the cytotoxicity at 2.5 µM was 3.1%, the cytotoxicity at 5 µM was determined as 4.3% and the cytotoxicity at 7.5 µM was found to be 17.2%. In addition, the cytotoxicity at 10 µM in test [8] is 19.8%. For the same compound, in test [9] (72 h, 3-day treatment), the cytotoxicity at 1 µM amounted to 1%, the cytotoxicity at 2.5 µM turned out to be 1.5%, the cytotoxicity at 5 µM stood at 1.4% and the cytotoxicity at 7.5 µM is 2.1%. Also, the cytotoxicity at 10 µM in test [9] (72 h, 3-day treatment) is 7.6%. In test [9] (168 h, 7-day treatment), the cytotoxicity at 1 µM stood at 1.8%, the cytotoxicity at 2.5 µM turned out to be 1.9%, the cytotoxicity at 5 µM is 2.3% and the cytotoxicity at 7.5 µM was found to be 4.6%. Further, in [9] (168 h, 7-day treatment), the cytotoxicity at 10 µM amounted to 14.7%.

Take `CNC(=O)c1cc(Oc2ccc(NC(=O)Nc3cc(S(F)(F)(F)(F)F)ccc3Cl)c(F)c2)ccn1` [Example 6, 4-[4-({[2-chloro-5-(pentafluoro-λ^6-sulfanyl)phenyl]carbamoyl}amino)-3-fluorophenoxy]-N-methylpyridine-2-carboxamide]: the “Cell Death (%) at Tested Concentration” value came to 3.9% in [5] (0.25 uM); 38.4% in [5] (3.0 uM); 89.6% in test [5] (5.0 uM); 2.6% in test [6] (0.25 uM); 90.7% in [6] (3.0 uM); 99% in test [6] (5.0 uM). Further, the entries for the “Cell Death (%) at Tested Concentration” value in [7] (2.5 uM), in test [7] (5.0 uM) and in test [7] (10 uM) were 11.7%, 13.4% and 22.1%, respectively. The cytotoxicity at 1 µM in test [8] was determined as 2%; in test [9] (72 h, 3-day treatment), 1.1%; in test [9] (168 h, 7-day treatment), 1.7%. The cytotoxicity at 2.5 µM in test [8] came to 2.2%; in [9] (72 h, 3-day treatment) it was 1.3%; in [9] (168 h, 7-day treatment), 1.9%. For the same compound, the cytotoxicity at 5 µM in test [8] was found to be 7.4%; in test [9] (72 h, 3-day treatment), 1.2%; in test [9] (168 h, 7-day treatment) it was 2.4%. In addition, the cytotoxicity at 7.5 µM in test [8] was 32.1%; in test [9] (72 h, 3-day treatment) it was 3.6%; in test [9] (168 h, 7-day treatment) it was 4.8%. Besides, the cytotoxicity at 10 µM in test [8] stood at 35.4%; in [9] (72 h, 3-day treatment) it was 4.3%; in test [9] (168 h, 7-day treatment) it was 13.4%. Also, the “Cell Death (%) in combination” value in [1] (AZD-6244 0 μM) is listed as 2.1%; in test [1] (AZD-6244 0.5 μM), 99%.

Source of the values: patent publication US8937088B2, “Ureas for the treatment and prevention of cancer” (Astar Biotech LLC, priority 2011, dated 2015).
